Counter-ions that a name gives are not always drawn.
Tests used:
[1] = tested on: recreational stimulant users; experiment: Treatment-emergent adverse events, intravenous study (Example 2); conditions: SDX Cl 30 mg (N=31), d-MPH HCl 15 mg (N=30)
Protocol: A study was conducted in humans to assess the intravenous abuse potential of serdexmethylphenidate relative to unconjugated d-methylphenidate and placebo in recreational stimulant abusers. This was a Phase 1, randomized, double-blind study in which serdexmethylphenidate and d-methylphenidate were administered intravenously in recreational stimulant users with a history of non-oral abuse. In Part A of the study, subjects (Cohort 1) participated in a dose-escalation phase to determine the optimal dose of intravenous d-methylphenidate based on tolerability and abuse-related pharmacodynamic assessments. […] The doses of serdexmethylphenidate and d-methylphenidate are equivalent with respect to molar amount of d-methylphenidate. FDA-recommended abuse potential measures and blood samples were collected at different times after dosing. Safety assessments were performed throughout the study.

[2] = tested on: healthy, nondependent, recreational stimulant users with intranasal insufflation experience; experiment: Treatment-emergent adverse events, intranasal study (Example 5, Table 54)
Protocol: The study consisted of a Screening Period, an in-clinic Drug Discrimination Phase, a Treatment Phase, and a Follow-Up Visit.
All subjects were required to fast for at least 8 hours prior to each dose of study drug until approximately 4 hours after each dose. Abuse potential measures and pharmacokinetic samples were collected at different times after the administration of study drug. Subjects who successfully completed the Drug Discrimination Phase and who qualified for the Treatment Phase remained as inpatients to enter the Treatment Phase.

[3] = tested on: healthy, nondependent, recreational stimulant users; experiment: Oral abuse potential, VAS pharmacodynamic scores (Example 4); conditions: for Drug Liking Emax (mean) / Drug Liking Emax (median) / Feeling Alert/Drowsy Emax (mean) / Feeling Alert/Drowsy Emax (median) / Overall Drug Liking Emax (mean) / Overall Drug Liking Emax (median) / Take Drug Again Emax (mean) / Take Drug Again Emax (median): bipolar VAS; for Any Effects Emax (mean) / Any Effects Emax (median) / Bad Effects Emax (mean) / Bad Effects Emax (median) / Feeling High Emax (mean) / Feeling High Emax (median) / Good Effects Emax (mean) / Good Effects Emax (median): unipolar VAS
[4] = d-MPH HCl 40 mg (N = 46), SDX Cl 80 mg (N = 46)
[5] = SDX Cl 120 mg, Focalin XR 80 mg, phentermine HCl 60 mg

## COC(=O)[C@H](c1ccccc1)[C@H]1CCCCN1C(=O)OC[n+]1cccc(C(=O)N[C@@H](CO)C(=O)O)c1.[Cl-] [serdexmethylphenidate chloride]
[1]
  TEAE Change in sustained attention, % of subjects: (0.0) %
  TEAE Change in sustained attention, n subjects: 0
  TEAE Dry mouth, % of subjects: (0.0) %
  TEAE Dry mouth, n subjects: 0
  TEAE Energy increased, % of subjects: (6.5) %
  TEAE Energy increased, n subjects: 2
  TEAE Euphoric mood, % of subjects: (12.9) %
  TEAE Euphoric mood, n subjects: 4
  TEAE Feeling abnormal, % of subjects: (3.2) %
  TEAE Feeling abnormal, n subjects: 1
  TEAE Feeling hot, % of subjects: (6.5) %
  TEAE Feeling hot, n subjects: 2
  TEAE Feeling jittery, % of subjects: (0.0) %
  TEAE Feeling jittery, n subjects: 0
  TEAE Feeling of relaxation, % of subjects: (0.0) %
  TEAE Feeling of relaxation, n subjects: 0
  TEAE Headache, % of subjects: (3.2) %
  TEAE Headache, n subjects: 1
  TEAE Heart rate increased, % of subjects: (0.0) %
  TEAE Heart rate increased, n subjects: 0
  TEAE Hyperhidrosis (sweaty hands), % of subjects: (3.2) %
  TEAE Hyperhidrosis (sweaty hands), n subjects: 1
  TEAE Hypervigilance, % of subjects: (12.9) %
  TEAE Hypervigilance, n subjects: 4
  TEAE Nausea, % of subjects: (0.0) %
  TEAE Nausea, n subjects: 0
  TEAE Palpitations, % of subjects: (0.0) %
  TEAE Palpitations, n subjects: 0
  TEAE Paraesthesia (tingling), % of subjects: (0.0) %
  TEAE Paraesthesia (tingling), n subjects: 0
  TEAE Sinus tachycardia, % of subjects: (0.0) %
  TEAE Sinus tachycardia, n subjects: 0
  TEAE Somnolence, % of subjects: (3.2) %
  TEAE Somnolence, n subjects: 1
  TEAE Tachycardia, % of subjects: (0.0) %
  TEAE Tachycardia, n subjects: 0
[2]; SDX Cl 80 mg vs d-MPH HCl 40 mg
  nasal discomfort, nasal congestion, rhinorrhoea, epistaxis, increased lacrimation, frequency vs intranasal d-MPH HCl: occurred more often
[2]; [4]
  TEAE: Back pain: 0 n (%) [E]
  TEAE: Blood pressure diastolic increased: 0 n (%) [E]
  TEAE: Bruxism: 0 n (%) [E]
  TEAE: Change in sustained attention: 0 n (%) [E]
  TEAE: Chest discomfort: 0 n (%) [E]
  TEAE: Decreased appetite: 0 n (%) [E]
  TEAE: Defaecation urgency: 0 n (%) [E]
  TEAE: Dry mouth: 0 n (%) [E]
  TEAE: Dry throat: 0 n (%) [E]
  TEAE: Dysmenorrhoea (menstrual cramps): 0 n (%) [E]
  TEAE: Dyspepsia: 0 n (%) [E]
  TEAE: Energy increased: 0 n (%) [E]
  TEAE: Eye irritation: 0 n (%) [E]
  TEAE: Feeling hot: 0 n (%) [E]
  TEAE: Flushing: 0 n (%) [E]
  TEAE: Haematoma: 0 n (%) [E]
  TEAE: Hypopnoea (shallow breathing): 0 n (%) [E]
  TEAE: Infections and infestations: 0 n (%) [E]
  TEAE: Investigations: 0 n (%) [E]
  TEAE: Metabolism and nutrition disorders: 0 n (%) [E]
  TEAE: Muscle tightness: 0 n (%) [E]
  TEAE: Muscle twitching: 0 n (%) [E]
  TEAE: Neck pain: 0 n (%) [E]
  TEAE: Obsessive-compulsive disorder: 0 n (%) [E]
  TEAE: Peripheral swelling: 0 n (%) [E]
  TEAE: Pharyngeal hypoaesthesia (numbness of throat): 0 n (%) [E]
  TEAE: Pharyngitis: 0 n (%) [E]
  TEAE: Phlebitis superficial: 0 n (%) [E]
  TEAE: Phonophobia (fear of loud noises): 0 n (%) [E]
  TEAE: Photophobia: 0 n (%) [E]
  TEAE: Pyrexia: 0 n (%) [E]
  TEAE: Reproductive system and breast disorders: 0 n (%) [E]
  TEAE: Restlessness: 0 n (%) [E]
  TEAE: Sinus tachycardia: 0 n (%) [E]
  TEAE: Tachycardia: 0 n (%) [E]
  TEAE: Testis discomfort: 0 n (%) [E]
  TEAE: Vascular disorders: 0 n (%) [E]
  TEAE: Ventricular extrasystoles: 0 n (%) [E]
  TEAE: Vessel puncture site bruise: 0 n (%) [E]
  TEAE: Vessel puncture site pain: 0 n (%) [E]
  TEAE: Visual impairment: 0 n (%) [E]
  TEAE: Vomiting: 0 n (%) [E]
[3]; SDX Cl 120 mg, Focalin XR 80 mg
  Mean difference Bad Effects Emax vs placebo: 1.3
[3]; [5]
  Mean difference Any Effects Emax vs placebo: 11.0
  Mean difference Drug Liking Emax vs placebo: 6.8
  Mean difference Feeling Alert/Drowsy Emax vs placebo: 7.7
  Mean difference Feeling High Emax vs placebo: 10.4
  Mean difference Good Effects Emax vs placebo: 12.1
  Mean difference Overall Drug Liking Emax vs placebo: 3.8
  Mean difference Take Drug Again Emax vs placebo: 2.2
  Drug Liking Emax (mean): 62.8
  Drug Liking Emax (median): 53.0
  Feeling Alert/Drowsy Emax (mean): 64.4
  Feeling Alert/Drowsy Emax (median): 54.0
  Overall Drug Liking Emax (mean): 58.5
  Overall Drug Liking Emax (median): 50.0
  Take Drug Again Emax (mean): 57.4
  Take Drug Again Emax (median): 50.0
  Any Effects Emax (mean): 28.8
  Any Effects Emax (median): 14.0
  Bad Effects Emax (mean): 6.04
  Bad Effects Emax (median): 0.0
  Feeling High Emax (mean): 25.6
  Feeling High Emax (median): 7.0
  Good Effects Emax (mean): 27.0
  Good Effects Emax (median): 10.0
[3]; SDX Cl 240 mg
  Mean difference Any Effects Emax vs placebo: 20.5
  Mean difference Bad Effects Emax vs placebo: 8.6
  Mean difference Drug Liking Emax vs placebo: 8.3
  Mean difference Feeling Alert/Drowsy Emax vs placebo: 11.2
  Mean difference Feeling High Emax vs placebo: 18.8
  Mean difference Good Effects Emax vs placebo: 17.4
  Mean difference Overall Drug Liking Emax vs placebo: 3.3
  Mean difference Take Drug Again Emax vs placebo: 1.7
  Drug Liking Emax (mean): 63.8
  Drug Liking Emax (median): 59.0
  Feeling Alert/Drowsy Emax (mean): 67.4
  Feeling Alert/Drowsy Emax (median): 64.0
  Overall Drug Liking Emax (mean): 58.0
  Overall Drug Liking Emax (median): 51.0
  Take Drug Again Emax (mean): 56.9
  Take Drug Again Emax (median): 50.0
  Any Effects Emax (mean): 37.0
  Any Effects Emax (median): 23.0
  Bad Effects Emax (mean): 13.4
  Bad Effects Emax (median): 0.0
  Feeling High Emax (mean): 32.1
  Feeling High Emax (median): 19.0
  Good Effects Emax (mean): 30.8
  Good Effects Emax (median): 15.0

## COC(=O)[C@H](c1ccccc1)[C@H]1CCCCN1 [d-methylphenidate hydrochloride, d-threo-methylphenidate hydrochloride]
[1]
  TEAE Change in sustained attention, % of subjects: (6.7) %
  TEAE Change in sustained attention, n subjects: 2
  TEAE Dry mouth, % of subjects: (20.0) %
  TEAE Dry mouth, n subjects: 6
  TEAE Energy increased, % of subjects: (3.3) %
  TEAE Energy increased, n subjects: 1
  TEAE Euphoric mood, % of subjects: (56.7) %
  TEAE Euphoric mood, n subjects: 17
  TEAE Feeling abnormal, % of subjects: (6.7) %
  TEAE Feeling abnormal, n subjects: 2
  TEAE Feeling hot, % of subjects: (20.0) %
  TEAE Feeling hot, n subjects: 6
  TEAE Feeling jittery, % of subjects: (6.7) %
  TEAE Feeling jittery, n subjects: 2
  TEAE Feeling of relaxation, % of subjects: (3.3) %
  TEAE Feeling of relaxation, n subjects: 1
  TEAE Headache, % of subjects: (3.3) %
  TEAE Headache, n subjects: 1
  TEAE Heart rate increased, % of subjects: (16.7) %
  TEAE Heart rate increased, n subjects: 5
  TEAE Hyperhidrosis (sweaty hands), % of subjects: (13.3) %
  TEAE Hyperhidrosis (sweaty hands), n subjects: 4
  TEAE Hypervigilance, % of subjects: (33.3) %
  TEAE Hypervigilance, n subjects: 10
  TEAE Nausea, % of subjects: (10.0) %
  TEAE Nausea, n subjects: 3
  TEAE Palpitations, % of subjects: (6.7) %
  TEAE Palpitations, n subjects: 2
  TEAE Paraesthesia (tingling), % of subjects: (6.7) %
  TEAE Paraesthesia (tingling), n subjects: 2
  TEAE Sinus tachycardia, % of subjects: (13.3) %
  TEAE Sinus tachycardia, n subjects: 4
  TEAE Somnolence, % of subjects: (13.3) %
  TEAE Somnolence, n subjects: 4
  TEAE Tachycardia, % of subjects: (13.3) %
  TEAE Tachycardia, n subjects: 4
[2]; [4]
  TEAE: Abdominal distension: 0 n (%) [E]
  TEAE: Agitation: 0 n (%) [E]
  TEAE: Arthralgia: 0 n (%) [E]
  TEAE: Catheter site haematoma: 0 n (%) [E]
  TEAE: Catheter site swelling: 0 n (%) [E]
  TEAE: Chest pain: 0 n (%) [E]
  TEAE: Claustrophobia: 0 n (%) [E]
  TEAE: Cough: 0 n (%) [E]
  TEAE: Dizziness: 0 n (%) [E]
  TEAE: Dysgeusia: 0 n (%) [E]
  TEAE: Dyspepsia: 0 n (%) [E]
  TEAE: Ecchymosis (skin discoloration): 0 n (%) [E]
  TEAE: Epistaxis (nosebleed): 0 n (%) [E]
  TEAE: Eye pain: 0 n (%) [E]
  TEAE: Feeling of relaxation: 0 n (%) [E]
  TEAE: Head discomfort: 0 n (%) [E]
  TEAE: Infections and infestations: 0 n (%) [E]
  TEAE: Irritability: 0 n (%) [E]
  TEAE: Lacrimation increased: 0 n (%) [E]
  TEAE: Nasal dryness: 0 n (%) [E]
  TEAE: Pharyngitis: 0 n (%) [E]
  TEAE: Phlebitis superficial: 0 n (%) [E]
  TEAE: Pyrexia: 0 n (%) [E]
  TEAE: Rhinorrhoea (runny nose): 0 n (%) [E]
  TEAE: Sneezing: 0 n (%) [E]
  TEAE: Upper-airway cough syndrome: 0 n (%) [E]
  TEAE: Vomiting: 0 n (%) [E]
[2]; d-MPH HCl 40 mg vs SDX Cl 80 mg
  typical stimulant-related adverse events (euphoric mood, hypervigilance, cardiac palpitations, tachycardia), frequency vs intranasal SDX Cl: occurred more often

Reference: patent US20190381017A1, “Compositions Comprising Serdexmethylphenidate Conjugates And Methods Of Use Thereof” (KemPharm, Inc., priority 2018, published 2019)
